# Measured values as given in patent publication US20090082332A1, “PURINE DERIVATIVES FOR THE TREATMENT OF VIRAL OR ALLERGIC DISEASES AND CANCERS” (priority 2005, published 2009).
# Target: T1, Recombinant human TLR7 (Homo sapiens, UniProt Q9NYK1)
# T1 construct: expressed in transfected cells; host or cells: HEK293 cell line stably expressing the pNiFty2-SEAP reporter plasmid; TLR7 in pUNO vector, blasticidin selection
# T1 sequence (Q9NYK1 27-1049): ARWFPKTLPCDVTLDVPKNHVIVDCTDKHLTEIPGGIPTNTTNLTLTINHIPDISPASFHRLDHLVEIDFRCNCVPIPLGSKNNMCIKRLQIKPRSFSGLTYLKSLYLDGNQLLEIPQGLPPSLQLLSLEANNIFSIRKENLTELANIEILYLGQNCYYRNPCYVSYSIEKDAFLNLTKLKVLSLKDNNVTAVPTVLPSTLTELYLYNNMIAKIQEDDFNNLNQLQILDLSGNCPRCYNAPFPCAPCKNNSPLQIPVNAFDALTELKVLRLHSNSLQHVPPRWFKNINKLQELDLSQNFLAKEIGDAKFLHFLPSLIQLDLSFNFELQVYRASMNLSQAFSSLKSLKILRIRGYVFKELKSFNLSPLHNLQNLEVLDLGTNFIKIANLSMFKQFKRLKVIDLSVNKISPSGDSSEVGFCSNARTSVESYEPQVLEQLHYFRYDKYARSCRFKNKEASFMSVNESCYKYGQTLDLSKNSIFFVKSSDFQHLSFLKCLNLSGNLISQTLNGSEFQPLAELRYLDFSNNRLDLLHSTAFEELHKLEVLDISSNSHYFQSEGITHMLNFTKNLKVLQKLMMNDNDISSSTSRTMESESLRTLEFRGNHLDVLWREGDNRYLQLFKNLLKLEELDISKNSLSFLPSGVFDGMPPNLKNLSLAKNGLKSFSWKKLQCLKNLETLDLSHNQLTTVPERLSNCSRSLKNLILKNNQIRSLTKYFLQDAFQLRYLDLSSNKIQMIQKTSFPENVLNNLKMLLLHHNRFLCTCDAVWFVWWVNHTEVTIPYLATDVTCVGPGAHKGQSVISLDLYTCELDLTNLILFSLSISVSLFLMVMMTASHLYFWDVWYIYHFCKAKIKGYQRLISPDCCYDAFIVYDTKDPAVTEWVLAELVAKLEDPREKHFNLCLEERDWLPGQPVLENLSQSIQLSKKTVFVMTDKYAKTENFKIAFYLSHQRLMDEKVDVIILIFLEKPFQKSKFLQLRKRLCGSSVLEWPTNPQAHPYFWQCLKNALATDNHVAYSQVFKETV
# Assay: Human TLR7 assay (SEAP reporter in HEK293 cells)
# Type: cell-based
# Conditions: HEK293 cells expressing human TLR7 and pNiFty2-SEAP reporter; overnight incubation at 37° C., 0.1% (v/v) DMSO
# Source text: Recombinant human TLR7 was stably expressed in a HEK293 cell line already stably expressing the pNiFty2-SEAP reporter plasmid; integration of the reporter gene was maintained by selection with the antibiotic zeocin. The most common variant sequence of human TLR7 (represented by the EMBL sequence AF240467) was cloned into the mammalian cell expression vector pUNO and transfected into this reporter cell-line. Transfectants with stable expression were selected using the antibiotic blasticidin. In this reporter cell-line, expression of secreted alkaline phosphatase (SEAP) is controlled by an NFkB/ELAM-1 composite promoter comprising five NFkB sites combined with the proximal ELAM-1 promoter. TLR signaling leads to the translocation of NFkB and activation of the promoter results in expression of the SEAP gene. TLR7-specific activation was assessed by determining the level of SEAP produced following overnight incubation of the cells at 37° C. with the standard compound in the presence of 0.1% (v/v) dimethylsulfoxide (DMSO). Concentration dependent induction of SEAP production by compounds was expressed as the log of the minimal effective concentration of compound to induce SEAP release (pMEC).
row,Structure (SMILES),pMEC (log of the minimal effective concentration of compound to induce SEAP release)
1,"CCCCOc1nc(N)c2[nH]c(=O)n(CCCCN(Cc3cccc(CC(=O)OC)c3)C3CCN(C)CC3)c2n1 [Example 10, Methyl (3-{[[4-(6-amino-2-butoxy-8-oxo-7,8-dihydro-9H-purin-9-yl)butyl] (1-methylpiperidin-4-yl)amino]methyl}phenyl)acetate]",pMEC 8.4
2,"CCCCOc1nc(N)c2[nH]c(=O)n(CCCN(Cc3cccc(CC(=O)OC)c3)C3CCN(CC#N)CC3)c2n1 [Example 14, Methyl [3-({[3-(6-amino-2-butoxy-8-oxo-7,8-dihydro-9H-purin-9-yl)propyl][1-(cyanomethyl)piperidin-4-yl]amino}methyl)phenyl]acetate]",pMEC 7.7
3,"CCCCOc1nc(N)c2[nH]c(=O)n(CCCN(Cc3cccc(CC(=O)OC)c3)C3CCN(CCCC(=O)OC(C)(C)C)CC3)c2n1 [Example 17, tert-Butyl 4-(4-{[3-(6-amino-2-butoxy-8-oxo-7,8-dihydro-9H-purin-9-yl)propyl][3-(2-methoxy-2-oxoethyl)benzyl]amino}piperidin-1-yl)butanoate]",pMEC 9.1
